EP3839043A1, “SCREENING METHODS FOR COMPOUNDS MODULATING POLYAMINE TRANSPORT” (Katholieke Universiteit Leuven, priority 2019, dated 2021)

Assays:
SH-SY5Y cells [1] = assay: MUH cytotoxicity assay; format: cell-based, human; settings: increasing concentrations, 24 h
Protocol: MUH cytotoxicity assay - SH-SY5Y cells were seeded in 96-well plates (1 X 10^4 cells per well) and allowed to adhere overnight. The cells were subsequently treated with increasing doses of the indicated compounds for 24-48 h. Following exposure, the cells were washed with PBS and stained with 300 µg/ml MUH (prepared in DMSO, dissolved in PBS) for 30 min at 37°C.

D508N mutant = D508N mutant (Homo sapiens, UniProt Q9NQ11, D513N); settings: 100 µM SPM
Protocol: Membrane fractionation - Transduced SH-SY5Y cells were seeded in […] at a density of 6 x 10^6 cells per plate. 24 h later, the cells were harvested following trypsinization and brief centrifugation (300 x g, 5 min). Subcellular fractionation was performed by differential centrifugation. The microsomal protein concentration was measured using the bicinchoninic acid assay (Thermo Fischer Scientific, Pierce) according to the manufacturer's instructions.
ATPase assay - The ATPase activity of ATP13A2 was assessed using a commercially available luminescence assay (ADP-Glo Max assay, Promega) that monitors the production of ADP via luciferase activity. The reactions were performed for 30 min (37°C) in a final volume of 25 µl. The assay reaction mixture contained 50 mM MOPS-KOH (pH 7), 100 mM KCI, 11 mM MgCl2, 1 mM DTT, 195 µM DDM, various concentrations of the indicated compound, and either microsomes (5 µg) harvested from SH-SY5Y cells overexpressing ATP13A2 (WT or mutants) or purified ATP13A2 (0.5 µg). When purified ATP13A2 was used, we included 125 µM PA, 125 µM PI(3,5)P2 and 19.5 µM DDM in the reaction buffer. […] After 40 min, luminescence was detected using a FlexStation 3.0 system (Molecular Devices). Dose-response curves and n/Km/Vmax values were calculated using GraphPad Prism Software (GraphPad Software Inc.).

SH-SY5Y cells [2] = settings: KO and KO/D508N cells; SPM 10 µM, 4 h
Protocol: BODIPY-SPM localization and lysosomal rupture analysis - For all immunofluorescent stainings SH-SY5Y cell lines were seeded in 12-well plates (0.25 X 10^5 cells per well on coverslips) and the next day, the cells were incubated with the indicated compounds for 4 h at 37°C. For BODIPY-SPM analysis, cells were pulsed with 5 µM SPM for 15 min, washed and chased in fresh media for a further 1 h and 45 min at 37°C. Following treatments, the cells were washed twice in PBS, fixed in 4% paraformaldehyde for 30 min (37°C), washed in PBS and stored at 4°C. For immunofluorescence staining, the cells were washed in PBS containing 0.5% Tween 20 (PBS-T), permeabilized in PBS containing 0.1% Triton X-100 (30 min) and blocked first in 0.1 M glycine and then in PBS-T containing 1% fetal calf serum and 10% BSA. Gal-3-, LAMP1- and cathepsin B-specific antibodies were used at a dilution of 1:100-200 (in PBS-T containing 1% BSA) overnight at 4°C. Subsequently, the samples were washed and incubated with Alexa Fluor™ secondary antibody (1:1,000, 30 min). To assess FITC-dextran release, cells were loaded with 50 µg/ml FITC-dextran for 72 h, cells were then washed and placed in fresh media for 1 h prior to SPM (10 µM) addition. To visualize the nucleus, all samples were stained with DAPI. […]

ATP13A2 = ATP13A2 (Homo sapiens, UniProt Q9NQ11)
Protocol: PLoS One 13, e0193228, (2018)].
In case of purified ATP13A2, 125 µM PA and 125 µM PI(3,5)P2 were included in the reaction mixture. To determine the sensitivity of the ATP13A2 phosphoenzyme to ATP or a combination of ATP and SPM, 30 s after adding ^32P-ATP, samples were incubated with non-radioactive ATP (5 mM in experiments using microsomes, 1 mM when purified ATP13A2 was used) and SPM (1 mM) before the reaction was stopped at indicated time points. The incorporation of ^32P was visualized following SDS-PAGE under acidic conditions and subsequently detected by autoradiography (microsomes) or liquid scintillation counting (purified ATP13A2) (Liquid Scintillation Analyzer TRI-CARB 2900TR).

cathepsin B (CTSB) = settings: toxic SPM levels (10 µM, 4 h)
Protocol: (§1) Cathepsin activity assays - SH-SY5Y cells were seeded in 10 cm^2 plates (2 X 10^6 cells per plate) and allowed to adhere overnight prior to treatment with 10 µM SPM for 4 h at 37°C. For samples requiring acidic nanoparticle addition, 180 ng/ml nanoparticles were added 1 h prior to SPM addition. Next, the samples were harvested using TRYPLE and a brief centrifugation (300 x g; 5 min). CTSB (ab65300) and CTSD (ab65302) activities were assessed using commercially available kits (Abcam) according to the manufacturer's instructions. MFI were acquired using a FlexStation 3.0 multi-well plate reader (Molecular Devices).

cathepsin D (CTSD) = settings: toxic SPM levels (10 µM, 4 h)
Protocol: as §1

SH-SY5Y cells [3] = tested on: SH-SY5Y cells
Protocol: PI exclusion assay - Cells were seeded in 12-well plates (1.0 X 10^5 cells per well) and the next day, the cells were treated with increasing doses of SPM, alone or in combination with the CTSB inhibitor CA-074 (25 µM, 1 h pre-incubation) or acidic nanoparticles (180 ng/ml, 1 h pre-incubation), and incubated for 24 h at 37°C. Thereafter, the cells were harvested following trypsinization and a brief centrifugation (300 x g; 5 min), washed with PBS and stained with 1 µg/ml PI (in PBS containing 1% BSA). An Attune Nxt (Thermo Fischer Scientific) flow cytometer was used to determine the proportion of PI-positive cells (10,000 events per treatment).

ATP13A2, sequence (Q9NQ11 1-1175 isoform Q9NQ11-3): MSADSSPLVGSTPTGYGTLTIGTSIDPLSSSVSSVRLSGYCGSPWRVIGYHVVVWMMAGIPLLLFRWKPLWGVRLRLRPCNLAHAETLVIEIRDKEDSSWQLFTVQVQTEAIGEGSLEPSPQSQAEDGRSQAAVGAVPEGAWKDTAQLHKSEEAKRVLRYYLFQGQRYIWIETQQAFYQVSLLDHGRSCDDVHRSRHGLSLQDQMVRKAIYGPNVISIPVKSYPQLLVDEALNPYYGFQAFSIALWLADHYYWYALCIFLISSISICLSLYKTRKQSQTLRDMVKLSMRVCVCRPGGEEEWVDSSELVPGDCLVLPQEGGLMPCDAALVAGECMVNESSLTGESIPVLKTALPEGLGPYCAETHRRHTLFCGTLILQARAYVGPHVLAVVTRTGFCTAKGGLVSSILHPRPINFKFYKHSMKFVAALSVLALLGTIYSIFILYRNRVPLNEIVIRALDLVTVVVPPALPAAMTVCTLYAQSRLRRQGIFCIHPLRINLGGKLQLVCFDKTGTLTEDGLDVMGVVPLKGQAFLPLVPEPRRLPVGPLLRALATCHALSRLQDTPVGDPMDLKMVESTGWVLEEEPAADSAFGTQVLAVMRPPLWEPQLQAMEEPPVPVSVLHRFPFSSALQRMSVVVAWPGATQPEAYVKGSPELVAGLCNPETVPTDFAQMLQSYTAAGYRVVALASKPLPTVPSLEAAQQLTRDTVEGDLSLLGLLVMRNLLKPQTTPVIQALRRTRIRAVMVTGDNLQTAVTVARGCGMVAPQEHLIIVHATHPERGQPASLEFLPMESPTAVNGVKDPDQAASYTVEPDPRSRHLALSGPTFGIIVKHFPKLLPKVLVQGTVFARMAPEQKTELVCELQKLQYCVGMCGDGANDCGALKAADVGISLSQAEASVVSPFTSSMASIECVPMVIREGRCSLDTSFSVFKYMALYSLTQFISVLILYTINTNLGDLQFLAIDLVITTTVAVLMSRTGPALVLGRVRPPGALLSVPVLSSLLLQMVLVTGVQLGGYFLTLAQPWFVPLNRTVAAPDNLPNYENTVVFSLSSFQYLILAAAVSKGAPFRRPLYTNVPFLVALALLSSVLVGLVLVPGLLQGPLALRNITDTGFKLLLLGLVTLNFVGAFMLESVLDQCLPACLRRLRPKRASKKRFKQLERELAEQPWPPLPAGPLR
D508N mutant, sequence (Q9NQ11 1-1175 isoform Q9NQ11-3 D508N): as the sequence (Q9NQ11 1-1175 isoform Q9NQ11-3) above, with D508N counted along it

NCCCCNCCCN [Spermidine, spermidine]
viability of control cells (SH-SY5Y cells [1]): reduced the viability

NCCCNCCCCNCCCN [Spermine, spermine]
ATPase activity of D508N mutant (D508N mutant): had no effect
endogenous Gal-3 punctae (SH-SY5Y cells [2]): increased both the number and size
ATP13A2 phospho-enzyme levels (ATP13A2; WT-OE microsomes 20 µg, 60 s with [γ-32P] ATP): dose-dependent reduction
dephosphorylation rate following a chase with non-radioactive ATP (ATP13A2; WT-OE microsomes, 1 mM SPM): significantly higher dephosphorylation rate
viability of control cells (SH-SY5Y cells [1]): reduced the viability
cathepsin B (CTSB) activity (cathepsin B (CTSB)): increased
cathepsin D (CTSD) activity (cathepsin D (CTSD)): decreased
cell death (SH-SY5Y cells [3]): increase in cell death
